# Data reported in patent publication US7939534B2, “Certain chemical entities, compositions, and methods” (Cytokinetics, Inc., priority 2006, dated 2011).
# Biological target: T1, chicken gizzard smooth muscle myosin subfragment-1 chemically crosslinked to either cardiac or skeletal actin (Gallus gallus, UniProt P10587)
# T1 construct: chicken gizzard smooth muscle myosin subfragment-1; from tissue; host or cells: chicken gizzard
# Assay: Dose dependent smooth muscle myosin ATPase modulation (pyruvate kinase/horseradish peroxidase/pyruvate oxidase-coupled ATPase assay)
# Type: biochemical
# Settings: read-out: IC50 Arithmetic Mean
# In short: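 Chicken gizzard smooth muscle myosin S1 crosslinked (EDC/NHS) to cardiac or skeletal actin, concentration titrated to a set ATPase rate. Pyruvate kinase/pyruvate oxidase/HRP-coupled assay, 0.15 mM ATP, 12 mM K-PIPES pH 7.00, 100 mM KCl, amplex red fluorescence; IC50 from 4-parameter fit.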
row,Structure (SMILES),IC50 [µM]
1,"O=C(NCc1cccnc1)c1ccc(N2CC[C@@H](CO)C2)nc1NCCc1cccc(F)c1 [Compound 6, (6-[(3R)-3-(hydroxymethyl)pyrrolidinyl]-2-{[2-(3-fluorophenyl)ethyl]amino}(3-pyridyl))-N-(3-pyridylmethyl)carboxamide]",0.311
2,"O=C(NCc1cccnc1)c1ccc(N2CCCC2)nc1NCCc1cccc(F)c1 [Compound 16, (2-{[2-(3-fluorophenyl)ethyl]amino}-6-pyrrolidinyl(3-pyridyl))-N-(3-pyridylmethyl)carboxamide]",0.131
3,"O=C(NCc1cccnc1)c1ccc(N2CCCCC2)nc1NCCc1cccc(F)c1 [Compound 0, (2-{[2-(3-fluorophenyl)ethyl]amino}-6-piperidyl(3-pyridyl))-N-(3-pyridylmethyl)carboxamide]",0.371
4,"CC(C)(C)OC(=O)NCCCN1C(=O)CC[C@@H]1CNC(=O)c1cc(F)c(N2CCCC2)nc1NCCc1cccc(F)c1 [Compound 68, N-[((2R)-1-{3-[(tert-butoxy)carbonylamino]propyl}-5-oxopyrrolidin-2-yl)methyl](5-fluoro-2-{[2-(3-fluorophenyl)ethyl]amino}-6-pyrrolidinyl(3-pyridyl))carboxamide]",3.32

# The remaining lines, values ahead:
row,IC50 [µM],Structure (SMILES)
1,4.17,"O=C(NCc1cccnc1)c1ccc(C2CCCCC2)nc1NCCc1cccc(F)c1 [Compound 66, (6-cyclohexyl-2-{[2-(3-fluorophenyl)ethyl]amino}(3-pyridyl))-N-(3-pyridylmethyl)carboxamide]"
2,59.8,"CC(C)(C)OC(=O)N1CCN(c2ccc(C(=O)NCc3cccnc3)c(NCCc3cccc(F)c3)n2)C(=O)C1 [Compound 24, tert-butyl 4-(6-{[2-(3-fluorophenyl)ethyl]amino}-5-[N-(3-pyridylmethyl)carbamoyl](2-pyridyl))-3-oxopiperazinecarboxylate]"
3,0.197,"C[C@H](CNC(=O)c1cc(F)c(N2CCCC2)nc1NCCc1cccc(F)c1)NC(=O)CN [Compound 82, N-{(1R)-2-[(5-fluoro-2-{[2-(3-fluorophenyl)ethyl]amino}-6-pyrrolidinyl(3-pyridyl))carbonylamino]-isopropyl}-2-aminoacetamide]"
4,32.8,"O=C(NCc1cccnc1)c1ccc(N2CCCC2)nc1NCCc1ccccn1 [Compound 33, {2-[(2-(2-pyridyl)ethyl)amino]-6-pyrrolidinyl(3-pyridyl)}-N-(3-pyridylmethyl)carboxamide]"
5,56.4,"O=C(NCc1cccnc1)c1ccc(C2=NCCN2)nc1NCCc1cccc(F)c1 [Compound 73, (2-{[2-(3-fluorophenyl)ethyl]amino}-6-(2-imidazolin-2-yl)(3-pyridyl))-N-(3-pyridylmethyl)carboxamide]"
